Reference: US6506760B1, “Substituted hydrazinyl heteroaromatic inhibitors of thrombin” (Corvas International, Inc., priority 2000, dated 2003)
pIC50: −log10 of the molar value. Read-outs that look alike come from different tables or passages of the source.

Tests used:
Format in all cases: biochemical
human α-thrombin = human α-thrombin (Homo sapiens, UniProt P00734); test: Thrombin (fIIa) chromogenic assay, IC50
human plasmin = human plasmin (Homo sapiens, UniProt P00747); test: Plasmin chromogenic assay, IC50; details: 30 min incubation
Experimental: (§1) The ability of compounds of the present invention to act as a selective inhibitor of thrombin activity was assessed by determining the concentration of test-compound which inhibited the activity of this enzyme by 50%, (IC50), and comparing this value to that determined for all or some of the following related serine proteases: recombinant tissue plasminogen activator (rt-PA), plasmin, activated protein C, chymotrypsin, factor Xa and trypsin.
(§2) The buffer used for all assays was HBSA (10 mM HEPES, pH 7.5, 150 mM sodium chloride, 0.1% bovine serum albumin).
(§3) The assay for IC50 determinations was conducted by combining in appropriate wells of a Corning microtiter plate, 50 microliters of HBSA, 50 microliters of the test compound at a specified concentration (covering a broad concentration range) diluted in HBSA (or HBSA alone for V0 (uninhibited velocity) measurement), and 50 microliters of the enzyme diluted in HBSA. Following a 30 minute incubation at ambient temperature, 50 microliters of the substrate at the concentrations specified below were added to the wells, yielding a final total volume of 200 microliters. The initial velocity of chromogenic substrate hydrolysis was measured by the change in absorbance at 405 nm using a Thermo Max® Kinetic Microplate Reader over a 5 minute period in which less than 5% of the added substrate was utilized. The concentration of added inhibitor which caused a 50% decrease in the initial rate of hydrolysis was defined as the IC50 value.
Plasmin catalytic activity was determined using the chromogenic substrate, S-2366 [L-pyroglutamyl-L-prolyl-L-arginine-p-nitroaniline hydrochloride], which was obtained from DiaPharma group. The substrate was made up in deionized water followed by dilution in HBSA prior to the assay in which the final concentration was 300 micromolar (about 2.5-times Km). Purified human plasmin was obtained from Enzyme Research Laboratories, Inc. The enzyme was diluted into HBSA prior to assay in which the final concentration was 1.0 nM.

[1] = molecular target: T1, bovine pancreatic trypsin (Bos taurus, UniProt P00760); test: Trypsin chromogenic assay, IC50; details: 30 min incubation
T1 construct: bovine pancreatic trypsin was obtained from Worthington Biochemical Corp; purchased Worthington Biochemical Corp. TRL3; host or cells: bovine pancreas
T1 sequence (P00760 24-246): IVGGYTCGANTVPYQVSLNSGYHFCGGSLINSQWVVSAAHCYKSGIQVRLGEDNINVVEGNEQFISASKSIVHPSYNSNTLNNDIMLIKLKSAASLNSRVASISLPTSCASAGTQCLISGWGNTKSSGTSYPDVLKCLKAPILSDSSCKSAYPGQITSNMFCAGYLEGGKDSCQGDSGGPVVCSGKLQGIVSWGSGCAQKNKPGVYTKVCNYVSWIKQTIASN
Experimental: as §1, §2, §3
Trypsin catalytic activity was determined using the chromogenic substrate, S-2222 (benzoyl-L-isoleucine-L-glutamic acid-[gamma-methyl ester]-L-arginine-p-nitroanilide), which was obtained from DiaPharma Group. […] Purified (3×-crystallized; TRL3) bovine pancreatic trypsin was obtained from Worthington Biochemical Corp. The enzyme was reconstituted in deionized water and diluted into HBSA prior to assay in which the final concentration was 0.5 nM.

Factor Xa = molecular target: T2, Factor Xa (Homo sapiens, UniProt P00742); test: Factor Xa chromogenic assay, IC50; details: 30 min incubation; read-out: fxa IC50 (30 min)
T2 construct: purchased Enzyme Research Laboratories, Inc. (South Bend, Ind.)
Experimental: as §1, §2, §3
Factor Xa catalytic activity was determined using the chromogenic substrate S-2765 (N-benzyloxycarbonyl-D-arginine-L-glycine-L-arginine-p-n itroaniline ), obtained from DiaPharma Group (Franklin, Ohio). All substrates were reconstituted in deionized water prior to use. […] Purified human Factor X was obtained from Enzyme Research Laboratories, Inc. (South Bend, Ind.) and Factor Xa (FXa) was activated and prepared from it as described [Bock, P. E., Craig, P. A., Olson, S. T., and Singh, P. Arch, Biochem. Biophys, 273:375-388 (1989)]. The enzyme was diluted into HBSA prior to assay in which the final concentration was 0.25 nM.

[2] = 0 min incubation of enzyme with inhibitor, read-out: fIIa IC50 (0 min)
[3] = 30 min incubation of enzyme with inhibitor, read-out: fIIa IC50 (30 min)

human plasmin, sequence (P00747 581-810 limits assumed): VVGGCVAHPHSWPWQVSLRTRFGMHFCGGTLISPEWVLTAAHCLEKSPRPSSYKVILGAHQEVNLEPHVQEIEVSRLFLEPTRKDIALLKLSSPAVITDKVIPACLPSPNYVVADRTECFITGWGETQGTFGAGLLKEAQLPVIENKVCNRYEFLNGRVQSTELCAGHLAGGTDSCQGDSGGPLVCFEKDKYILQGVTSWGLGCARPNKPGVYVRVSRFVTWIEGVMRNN
human plasmin, sequence (P00747 97-580 partner limits assumed): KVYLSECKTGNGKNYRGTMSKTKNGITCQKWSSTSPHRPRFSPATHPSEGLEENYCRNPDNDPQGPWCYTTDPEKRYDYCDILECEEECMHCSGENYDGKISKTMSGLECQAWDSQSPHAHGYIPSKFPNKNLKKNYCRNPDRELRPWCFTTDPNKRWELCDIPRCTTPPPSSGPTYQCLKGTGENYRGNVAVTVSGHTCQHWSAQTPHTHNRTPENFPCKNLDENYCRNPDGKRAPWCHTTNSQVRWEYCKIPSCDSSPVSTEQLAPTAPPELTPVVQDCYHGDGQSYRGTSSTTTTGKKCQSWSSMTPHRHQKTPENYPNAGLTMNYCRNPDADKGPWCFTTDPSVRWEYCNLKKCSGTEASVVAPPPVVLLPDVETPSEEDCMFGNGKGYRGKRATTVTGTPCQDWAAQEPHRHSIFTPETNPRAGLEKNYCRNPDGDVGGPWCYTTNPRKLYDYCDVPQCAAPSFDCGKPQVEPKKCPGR
T2 sequence (P00742 235-488 limits assumed): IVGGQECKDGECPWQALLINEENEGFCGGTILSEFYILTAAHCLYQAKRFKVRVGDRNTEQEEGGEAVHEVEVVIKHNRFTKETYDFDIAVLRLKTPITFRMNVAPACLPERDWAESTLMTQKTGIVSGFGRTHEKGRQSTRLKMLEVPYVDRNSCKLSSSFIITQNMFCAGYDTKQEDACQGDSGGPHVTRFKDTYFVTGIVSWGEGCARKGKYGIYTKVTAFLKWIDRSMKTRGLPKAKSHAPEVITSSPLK
T2 sequence (P00742 41-179 partner limits assumed): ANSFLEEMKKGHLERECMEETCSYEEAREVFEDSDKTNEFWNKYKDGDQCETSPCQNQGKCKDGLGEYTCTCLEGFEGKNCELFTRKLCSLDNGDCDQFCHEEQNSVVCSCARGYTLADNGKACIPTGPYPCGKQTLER

Molecule | pIC50 (human α-thrombin; [2]) | pIC50 (human α-thrombin; [3]) | pIC50 (human plasmin) | pIC50 [1] | pIC50 (Factor Xa)
Cc1nc(N)ccc1CNC(=O)Cn1c(C)cnc(NNC(=O)NCc2ccc3c(c2)OCO3)c1=O [Example 49, 1-[5-(2-Amino-6-methylpyridyl)methylcarboxamidomethyl]-6-methyl-3-(2-piperonylcarbamylhydrazino)pyrazinone, Hydrotrifluoroacetate] | ≥ 7.00 | ≥ 7.00 | ≤ 4.00 | ≤ 4.00 | ≤ 4.00
1-[5-(2-Amino-6-methylpyridyl)methylcarboxamidomethyl]-3-[2-(2-chlorobenzenesulfonyl)hydrazino]-6-methylpyrazinone, Hydrotrifluoroacetate [Example 53] | ≥ 7.00 | ≥ 7.00 | ≤ 4.00 | 4.00 to 5.60 | 4.00 to 5.60
